Laboratory results: US12139498B1, “Positive allosteric modulators of the muscarinic acetylcholine receptor M4” (Vanderbilt University, priority 2023, dated 2024)

How the values were obtained:
[1] = Fraction unbound in rat brain; type: in vitro ADME; conditions: read-out: Rat Fu (brain)
Experimental: (§1) Compound 70 was tested in several in in vitro assays to investigate both metabolism and pharmacokinetics. These assays may be performed according to known methods as generally described in the following references: Conde-Ceide et al. ACS Med. Chem. Lett. 2015, 6, 716-720; Morris et al. J. Med. Chem. 2014, 57, 10192-10197; and Bubser et al. ACS Chem. Neurosci. 2014, 5, 920-942.

[2] = Rat intrinsic clearance; type: in vitro ADME
Experimental: as §1

[3] = biological target: P450 2C9 (Homo sapiens, UniProt P11712); assay: P450 2C9 inhibition; type: in vitro ADME
Sequence of P450 2C9 (P11712 whole entry): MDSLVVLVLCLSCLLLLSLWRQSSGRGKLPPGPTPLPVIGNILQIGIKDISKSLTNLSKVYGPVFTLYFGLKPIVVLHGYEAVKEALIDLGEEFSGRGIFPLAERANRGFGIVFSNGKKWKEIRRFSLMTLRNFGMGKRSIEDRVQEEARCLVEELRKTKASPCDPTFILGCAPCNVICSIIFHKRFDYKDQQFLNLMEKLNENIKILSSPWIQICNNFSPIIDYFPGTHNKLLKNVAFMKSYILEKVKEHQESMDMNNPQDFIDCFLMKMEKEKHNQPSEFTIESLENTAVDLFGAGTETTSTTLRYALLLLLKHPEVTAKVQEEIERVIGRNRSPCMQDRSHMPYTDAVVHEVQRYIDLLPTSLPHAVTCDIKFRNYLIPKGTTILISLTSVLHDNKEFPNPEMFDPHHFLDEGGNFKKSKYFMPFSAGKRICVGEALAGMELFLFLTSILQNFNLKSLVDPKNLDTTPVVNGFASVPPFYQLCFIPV
Experimental: as §1

[4] = biological target: T1, P450 1A2 (Homo sapiens, UniProt P05177); assay: P450 1A2 inhibition; type: in vitro ADME
T1 sequence (P05177 1-516): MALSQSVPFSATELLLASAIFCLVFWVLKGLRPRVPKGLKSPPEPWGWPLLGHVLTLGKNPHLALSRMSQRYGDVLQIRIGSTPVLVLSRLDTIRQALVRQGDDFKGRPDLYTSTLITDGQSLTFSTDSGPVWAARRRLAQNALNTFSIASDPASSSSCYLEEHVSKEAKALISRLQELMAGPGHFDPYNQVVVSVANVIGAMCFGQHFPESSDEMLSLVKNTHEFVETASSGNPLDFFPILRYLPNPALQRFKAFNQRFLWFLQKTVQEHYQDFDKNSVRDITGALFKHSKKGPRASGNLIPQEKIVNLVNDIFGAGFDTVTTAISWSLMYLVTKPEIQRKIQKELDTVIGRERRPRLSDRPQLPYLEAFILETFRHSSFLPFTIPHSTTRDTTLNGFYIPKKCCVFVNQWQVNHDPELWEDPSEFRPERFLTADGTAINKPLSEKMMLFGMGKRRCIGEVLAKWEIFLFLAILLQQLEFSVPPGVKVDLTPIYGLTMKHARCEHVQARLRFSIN
Experimental: as §1

[5] = In vivo pharmacokinetics in rat
Experimental: Compound 70 was tested in several in vivo assays and the pharmacokinetic parameters listed in the following table may be determined from pharmacokinetic studies in rat, dog, or cynomolgus monkey, according to known methods as generally described in the following references: Garrison et al. J. Med. Chem. 2022, 65, 6273-6286; Felts et al. J. Med. Chem 2017, 60, 5072-5085; and Yu et al. J. Med. Chem. 2021, 64, 4709-4729.

Cc1c(N2CCc3nc(C4(F)CC4)sc3C2)nc2nn(C)c(=O)n2c1C [Compound 70, 7-(2-(1-fluorocyclopropyl)-6,7-dihydrothiazolo[5,4-c]pyridin-5(4H)-yl)-2,5,6-trimethyl-[1,2,4]triazolo[4,3-a]pyrimidin-3(2H)-one]
fraction unbound [1]: 0.06
CLint scaled [2]: 36 mL/min/kg
IC50 [3]: > 30 µM
IC50 [4]: > 30 µM
Kp ([5]; brain / plasma): 1.4
Kp uu ([5]; brain / plasma, unbound): 0.3
Rat oral F (3 mg/kg) ([5]; oral 3 mg/kg): >100%
clearance ([5]; plasma, read-out: Rat CLp): 4.3 mL/min/kg
half-life ([5]; plasma, read-out: Rat Elim. t1/2 (converted)): 3.1 h
Vd ([5]; plasma, read-out: Rat Vss): 0.7 L/kg
